# Laboratory results as given in patent US6124498A, “Hydroxynaphthoic acids and derivatives” (University Of New Mexico, priority 1998, dated 2000).
# Entries after “also recorded” stand apart in the source; their conditions may differ.
# Tests used:
# pLDH [1] = target: T1, pLDH (Plasmodium falciparum, UniProt Q27743); assay: biochemical; format: biochemical; details: for mode of inhibition of pLDH with respect to cofactor (NADH): vs cofactor NADH; for selectivity for pLDH compared to LDH-H: pLDH vs LDH-H
# T1 construct: made in house; host or cells: E. coli
# Description: (§1) Human LDH-H4 and LDH-M4 were from Sigma.
# (§2) LDH activity in the direction of NADH reduction of pyruvate to L-lactate was determined spectrophotometrically in pH 7.5 Tris buffer, 100 mM, containing 10 mM pyruvate and […], 25° C., 340 nm, ε=6.2 mM^-1 cm^-1. Michaelis constants were determined by nonlinear regression analysis of initial rate data using the Enzfitter program (Elsevier-Biosoft). Ki values were determined from double reciprocal plots by linear regression analysis.
# human LDH-M (LDH-M4) = target: T2, human LDH-M (LDH-M4) (Homo sapiens, UniProt P00338); assay: Inhibition of human lactate dehydrogenase LDH-M (LDH-M4), NADH reduction of pyruvate; format: biochemical; details: for mode of inhibition of LDH-M with respect to cofactor (NADH): vs cofactor NADH; for selectivity for LDH-M compared to LDH-H: LDH-M vs LDH-H; for change in inhibition / dissociation constant of LDH-M relative to 13: group at 7-position, compared to 13
# T2 construct: purchased Sigma
# Description: Recombinant pLDH was produced in E. coli, similar to the procedure described by Bzik et al. in "Expression of Plasmodium falciparum Lactate Dehydrogenase in Escherida coli." in Mol. Biochem. Parasitol., 1993, 59, 155-166 and was purified by Cibacron blue affinity chromatography and chromatofocusing as described previously. Human LDH-H4 and LDH-M4 were from Sigma.
# as §2
# alcohol dehydrogenase = assay: Inhibition of alcohol dehydrogenase; format: biochemical; details: FIG. 14D
# Description: (§3) Other studies with other dehydrogenases that contain the classic Rossman fold, in addition to LDH, were carried out to test that inhibition of dehydrogenases by substituted didhydroxynaphthoic acids is not limited to inhibition of LDH. A number of dehydrogenases were examined as shown in FIGS. 14A (2,3-dihydroxy-6-methyl-7-(o-methylbenzyl)-4-(1-methylethyl)-1-naphthoic acid (25e) inhibition D-lactate dehydrogenase), 14B (2,3-dihydroxy-6-methyl-7-(m-methylbenzyl)-4-(1-methylethyl)-1-naphthoic acid (25f) inhibition of malate dehydrogenase), 14C (compound 25b inhibition of glucose 6-phosphate dehydrogenase) and 14D (compound 21e inhibition of alcohol dehydrogenase).
# human LDH-H (LDH-H4) = target: T3, human LDH-H (LDH-H4) (Homo sapiens, UniProt P07195); assay: Inhibition of human lactate dehydrogenase LDH-H (LDH-H4), NADH reduction of pyruvate; format: biochemical; details: group at 7-position, compared to 13
# T3 construct: purchased Sigma
# Description: as §1, §2
# [2] = system: glucose 6-phosphate dehydrogenase; assay: Inhibition of glucose 6-phosphate dehydrogenase; format: biochemical; details: FIG. 14C
# Description: as §3
# LDH-M4 = assay: Quenching of intrinsic protein fluorescence of LDH-M4 in presence and absence of ADP; format: binding, human; details: presence vs absence of ADP
# Description: (§4) To test the Pan-Active Site inhibitor model for the compounds of the present invention, the binding of dihydroxynaphthoic acids to pLDH and human LDH was examined using fluorescence techniques. The effects of ADP on the binding of inhibitors was compared with the effects of ADP on the binding of NADH to determine which part of the cofactor binding site was the target of the inhibitors. Representative results are shown in FIGS. 13A and 13B for the binding of compound 25c to pLDH. […] In FIG. 13B is shown the quenching of pLDH fluorescence by compound 25c in the presence and absence of ADP.
# pLDH [3] = target: T1, pLDH; assay: Quenching of intrinsic protein fluorescence of pLDH in presence and absence of ADP; format: binding; details: presence vs absence of ADP
# Description: as §4
# D-lactate dehydrogenase = assay: Inhibition of D-lactate dehydrogenase; format: biochemical; details: FIG. 14A
# Description: as §3
# malate dehydrogenase = assay: Inhibition of malate dehydrogenase; format: biochemical; details: FIG. 14B
# Description: as §3
# [4] = system: IMP dehydrogenase type 11; details: dominant isoenzyme in neoplastic cells; cited from earlier work
# T1 sequence (Q27743 whole entry): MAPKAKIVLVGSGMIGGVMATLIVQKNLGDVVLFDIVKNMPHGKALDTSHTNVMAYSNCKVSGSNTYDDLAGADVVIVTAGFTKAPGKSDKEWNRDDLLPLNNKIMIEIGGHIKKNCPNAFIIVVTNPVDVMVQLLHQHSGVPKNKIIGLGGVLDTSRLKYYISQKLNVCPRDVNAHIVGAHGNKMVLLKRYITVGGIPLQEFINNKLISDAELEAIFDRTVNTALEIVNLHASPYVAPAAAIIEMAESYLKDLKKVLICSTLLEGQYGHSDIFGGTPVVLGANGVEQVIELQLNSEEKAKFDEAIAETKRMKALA
# T3 sequence (P07195 2-334 limits assumed): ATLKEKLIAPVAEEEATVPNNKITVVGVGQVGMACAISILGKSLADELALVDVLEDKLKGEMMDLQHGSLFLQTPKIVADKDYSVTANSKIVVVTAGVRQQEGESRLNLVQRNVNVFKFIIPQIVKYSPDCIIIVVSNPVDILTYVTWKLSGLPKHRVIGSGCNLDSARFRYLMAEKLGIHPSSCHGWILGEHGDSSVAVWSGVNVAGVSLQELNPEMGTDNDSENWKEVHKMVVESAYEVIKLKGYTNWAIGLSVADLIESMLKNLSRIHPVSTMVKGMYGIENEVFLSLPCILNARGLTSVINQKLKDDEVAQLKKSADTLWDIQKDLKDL
compound,measurement,setting,value
"Cc1ccc2c(C(=O)O)c(O)c(O)c(C(C)C)c2c1 [Compound 13, 8-deoxyhemigossylic acid, reference compound]",dissociation constant for inhibition of pLDH,pLDH [1]; in words,low μmolar range
same,mode of inhibition of pLDH with respect to cofactor (NADH),pLDH [1],competitive with the binding of NADH
same,mode of inhibition of LDH-M with respect to cofactor (NADH),human LDH-M (LDH-M4),competitive with the binding of NADH
"Cc1ccc2c(C(=O)O)c(O)c(O)c(C)c2c1 [Compound 21a, 2,3-Dihydroxy-4,6-dimethyl-1-naphthoic acid]",selectivity for pLDH compared to LDH-H,pLDH [1],selectivity for pLDH and LDH-M compared to LDH-H
same,selectivity for LDH-M compared to LDH-H,human LDH-M (LDH-M4),selectivity for pLDH and LDH-M compared to LDH-H
"Cc1cc2c(C)c(O)c(O)c(C(=O)O)c2cc1C [Compound 21b, 2,3-Dihydroxy-4,6,7-trimethyl-1-naphthoic acid]",selectivity for pLDH compared to LDH-H,pLDH [1],selectivity for pLDH and LDH-M compared to LDH-H
same,selectivity for LDH-M compared to LDH-H,human LDH-M (LDH-M4),selectivity for pLDH and LDH-M compared to LDH-H
"Cc1cc2c(C)c(O)c(O)c(C(=O)O)c2cc1Cc1ccccc1 [Compound 21c, 7-Benzyl-2,3-dihydroxy-4,6-dimethyl-1-naphthoic acid]",selectivity for pLDH compared to LDH-H,pLDH [1],selectivity for pLDH and LDH-M compared to LDH-H
same,selectivity for LDH-M compared to LDH-H,human LDH-M (LDH-M4),selectivity for pLDH and LDH-M compared to LDH-H
"CCCc1c(O)c(O)c(C(=O)O)c2cc(C)c(C)cc12 [Compound 21e, 2,3-Dihydroxy-6,7-dimethyl-4-n-propyl-1-naphthoic acid]",inhibition of alcohol dehydrogenase,alcohol dehydrogenase,inhibition
same,selectivity for LDH-M compared to LDH-H,human LDH-M (LDH-M4),190 fold
"Cc1cc2c(C(=O)O)c(O)c(O)c(C(C)C)c2cc1C [Compound 25a, 2,3-Dihydroxy-6,7-dimethyl-4-(1-methylethyl)-1-naphthoic acid]",change in inhibition / dissociation constant of pLDH relative to 13,"pLDH [1]; group at 7-position, compared to 13",little change in the dissociation constants
same,change in inhibition / dissociation constant of LDH-M relative to 13,human LDH-M (LDH-M4),little change in the dissociation constants
"Cc1cc2c(C(C)C)c(O)c(O)c(C(=O)O)c2cc1Cc1ccccc1 [Compound 25b, 7-Benzyl-2,3-dihydroxy-6-methyl-4-(1-methylethyl)-1-naphthoic acid]",change in inhibition / dissociation constant of LDH-H relative to 13,human LDH-H (LDH-H4),markedly stronger inhibition
same,inhibition of glucose 6-phosphate dehydrogenase,[2],inhibition
same,change in inhibition / dissociation constant of LDH-M relative to 13,human LDH-M (LDH-M4),markedly stronger inhibition
"Cc1cc2c(C(C)C)c(O)c(O)c(C(=O)O)c2cc1Cc1ccc(C(F)(F)F)cc1 [Compound 25c, 7-p-Trifluoromethylbenzyl-2,3-dihydroxy-6-methyl-4-(1-methylethyl)-1-naphthoic acid]",effect of ADP on binding to LDH-M4 (fluorescence quenching),LDH-M4,The same results were obtained with LDH-M4
same,Ki,"pLDH [1]; pH 7.5 Tris, 25° C., read-out: Ki for inhibition of pLDH",0.2 µM
same,selectivity for pLDH over LDH-H,pLDH [1]; pLDH over LDH-H,400 fold
same,selectivity for pLDH over LDH-M,pLDH [1]; pLDH over LDH-M,75 fold
same,mode of inhibition of pLDH with respect to cofactor (NADH),pLDH [1],competitive against both cofactor and substrate
same,selectivity for pLDH compared to either human LDH,pLDH [1]; vs human LDH-M and LDH-H,highly selective in favor of pLDH
same,mode of inhibition of pLDH with respect to substrate,pLDH [1]; vs substrate (pyruvate),competitive against both cofactor and substrate; also recorded: appears competitive
same,competition with the ADP part of the NADH binding site of pLDH,pLDH [3],not competing with the ADP part of the NADH binding site
same,effect of ADP on binding to pLDH (fluorescence quenching),pLDH [3],enhances the binding of inhibitor
"Cc1ccc(Cc2cc3c(C(=O)O)c(O)c(O)c(C(C)C)c3cc2C)cc1 [Compound 25d, 2,3-dihydroxy-6-methyl-7-(p-methylbenzyl)-4-(1-methylethyl)-1-naphthoic acid]",Kd,"human LDH-M (LDH-M4); pH 7.5 Tris, 25° C.",0.03 µM
same,mode of inhibition of LDH-M with respect to cofactor (NADH),human LDH-M (LDH-M4),competitive against both cofactor and substrate
same,mode of inhibition of LDH-M4 with respect to substrate,"human LDH-M (LDH-M4); vs substrate (pyruvate), FIGS. 12A and 12B",competitive against both cofactor and substrate
"Cc1ccccc1Cc1cc2c(C(=O)O)c(O)c(O)c(C(C)C)c2cc1C [Compound 25e, 2,3-dihydroxy-6-methyl-7-(o-methylbenzyl)-4-(1-methylethyl)-1-naphthoic acid]",inhibition of D-lactate dehydrogenase,D-lactate dehydrogenase,inhibition
"Cc1cccc(Cc2cc3c(C(=O)O)c(O)c(O)c(C(C)C)c3cc2C)c1 [Compound 25f, 2,3-dihydroxy-6-methyl-7-(m-methylbenzyl)-4-(1-methylethyl)-1-naphthoic acid]",inhibition of malate dehydrogenase,malate dehydrogenase,inhibition
"NC(=O)C1=CN([C@@H]2O[C@H](COP(=O)(O)OP(=O)(O)OC[C@H]3O[C@@H](n4cnc5c(N)ncnc54)[C@H](O)[C@@H]3O)[C@@H](O)[C@H]2O)C=CC1 [NADH, reference compound]",effect of ADP on binding to pLDH (fluorescence quenching),pLDH [3],the presence of ADP competes with the binding of NADH
NC(=O)c1csc([C@@H]2O[C@H](COP(=O)(O)OP(=O)(O)OC[C@H]3O[C@@H](n4cnc5c(N)ncnc54)[C@H](O)[C@@H]3O)[C@@H](O)[C@H]2O)n1 [thiazole-4-carboxamide adenine dinucleotide],inhibition of IMP dehydrogenase type 11,[4],potent inhibitor
